Laboratory results: patent US20250382373A1, “ANTI-EGFR/MET ANTIBODIES AND USES THEREOF” (Biocytogen Pharmaceuticals (Beijing) Co., Ltd., priority 2022, published 2025)

Columns and labels:
SNU-5 cells = assay: Internalization (endocytosis) in SNU-5 cells, pHAb secondary antibody, flow cytometry; type: cell-based, human; conditions: 2.5 μg/ml, 1 hour
Protocol: Anti-EGFR antibodies (2.5 μg/ml) and pHAb-Goat Anti-Human IgG secondary antibody (Promega (Beijing) Biotech Co., Ltd., Cat #: G9845) were added to SNU-5 cells (ATCC, Reference No.: CRL-5973). After incubating at 37° C. and 5% CO2 for 1 hour, the cells were centrifuged and washed with FACS buffer. The mean fluorescence intensity (MFI) values were measured using a flow cytometer, and the endocytosis rates of the anti-EGFR antibodies were calculated.
Anti-MET antibodies ([…]) and pHAb-GoatAnti-Human IgG Antibody (Promega (Beijing) Biotech Co., Ltd., Cat #: G9845) were added to SUN-5 cells. After incubating for 1 hour, the cells were centrifuged and washed with FACS buffer. The MFI values were measured using a flow cytometer, and the endocytosis rates of the anti-MET antibodies were calculated.
The secondary antibody used in the experiment was: pHAb-AffiniPure Fab Fragment Goat Anti-Human IgG (Jackson Immuno Research, Cat #: 109-007-008).

human MET (hMET-His) [1] = biological target: T1, human MET (hMET-His) (Homo sapiens, UniProt P08581); assay: SPR binding affinity of anti-MET antibodies to hMET-His
T1 construct: His; purchased ACROBiosystems Inc. MET-H5227
T1 sequence (P08581 25-932 limits assumed): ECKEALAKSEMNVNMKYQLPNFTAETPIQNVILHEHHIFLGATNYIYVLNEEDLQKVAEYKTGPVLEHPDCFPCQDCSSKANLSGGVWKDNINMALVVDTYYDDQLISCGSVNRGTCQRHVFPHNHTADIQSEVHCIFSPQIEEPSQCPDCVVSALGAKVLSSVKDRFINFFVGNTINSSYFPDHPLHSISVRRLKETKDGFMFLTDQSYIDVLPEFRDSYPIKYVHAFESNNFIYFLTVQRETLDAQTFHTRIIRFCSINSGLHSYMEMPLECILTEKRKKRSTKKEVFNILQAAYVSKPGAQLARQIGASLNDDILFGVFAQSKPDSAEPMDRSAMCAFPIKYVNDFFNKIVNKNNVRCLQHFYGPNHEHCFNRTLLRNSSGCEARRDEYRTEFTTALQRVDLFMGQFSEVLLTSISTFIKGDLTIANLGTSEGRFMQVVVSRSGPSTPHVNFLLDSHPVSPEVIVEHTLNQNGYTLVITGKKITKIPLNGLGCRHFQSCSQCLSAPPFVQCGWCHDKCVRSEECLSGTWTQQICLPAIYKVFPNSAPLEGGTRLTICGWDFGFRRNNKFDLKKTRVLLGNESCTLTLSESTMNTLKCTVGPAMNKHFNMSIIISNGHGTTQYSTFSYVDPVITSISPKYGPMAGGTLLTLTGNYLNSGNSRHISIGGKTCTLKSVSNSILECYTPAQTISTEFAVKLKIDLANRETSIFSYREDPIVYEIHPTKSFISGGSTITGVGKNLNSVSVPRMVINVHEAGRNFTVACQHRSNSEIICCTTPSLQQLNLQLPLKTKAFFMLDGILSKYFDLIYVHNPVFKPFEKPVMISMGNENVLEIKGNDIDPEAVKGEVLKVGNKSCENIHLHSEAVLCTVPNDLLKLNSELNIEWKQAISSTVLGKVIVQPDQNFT
Text: (§1) In another similar experiment, the binding affinity of anti-MET antibodies M-6D12, M-6E6, M-7D3, M-819, M-8E2 and M-8H10 to hMET-His, fasMET-His or dMET-His (His-tagged dog MET, Sino, Cat #:70008-D08H) was verified. Telisotuzumab analog was used as a positive control.

monkey MET (fasMET-His) [2] = assay: SPR binding affinity of anti-MET antibodies to fasMET-His
monkey MET (fasMET-His), sequence (as listed by the source): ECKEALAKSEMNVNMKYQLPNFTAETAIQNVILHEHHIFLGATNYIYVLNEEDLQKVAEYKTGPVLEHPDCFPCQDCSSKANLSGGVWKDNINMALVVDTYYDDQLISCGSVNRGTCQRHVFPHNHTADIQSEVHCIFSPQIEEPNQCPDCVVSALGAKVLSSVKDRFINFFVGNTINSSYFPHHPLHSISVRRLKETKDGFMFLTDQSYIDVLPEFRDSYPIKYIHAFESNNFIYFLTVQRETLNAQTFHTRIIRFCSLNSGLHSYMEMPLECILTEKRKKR
monkey MET (fasMET-His), sequence (as listed by the source): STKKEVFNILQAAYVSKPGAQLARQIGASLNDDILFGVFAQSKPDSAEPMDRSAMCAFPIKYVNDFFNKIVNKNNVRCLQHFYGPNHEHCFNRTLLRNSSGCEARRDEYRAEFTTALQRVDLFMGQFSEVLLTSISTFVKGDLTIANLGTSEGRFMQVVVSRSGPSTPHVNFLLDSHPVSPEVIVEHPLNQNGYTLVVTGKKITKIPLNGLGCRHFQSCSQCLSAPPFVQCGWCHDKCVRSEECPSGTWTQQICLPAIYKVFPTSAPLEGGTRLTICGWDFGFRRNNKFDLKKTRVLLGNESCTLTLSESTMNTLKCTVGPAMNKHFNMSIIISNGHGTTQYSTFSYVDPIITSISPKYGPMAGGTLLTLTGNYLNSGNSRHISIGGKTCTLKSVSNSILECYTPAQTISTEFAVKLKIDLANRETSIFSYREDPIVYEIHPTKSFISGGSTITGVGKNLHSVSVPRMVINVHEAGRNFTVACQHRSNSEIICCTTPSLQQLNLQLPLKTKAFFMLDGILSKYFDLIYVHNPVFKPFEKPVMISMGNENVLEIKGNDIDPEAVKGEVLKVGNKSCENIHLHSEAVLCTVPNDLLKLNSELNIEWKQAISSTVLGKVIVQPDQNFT
Text: as §1

dog MET (dMET-His) = biological target: T2, dog MET (dMET-His) (Canis lupus familiaris, UniProt Q75ZY9); assay: SPR binding affinity of anti-MET antibodies to dMET-His
T2 construct: His; purchased Sino 70008-D08H
T2 sequence (Q75ZY9 25-933 limits assumed): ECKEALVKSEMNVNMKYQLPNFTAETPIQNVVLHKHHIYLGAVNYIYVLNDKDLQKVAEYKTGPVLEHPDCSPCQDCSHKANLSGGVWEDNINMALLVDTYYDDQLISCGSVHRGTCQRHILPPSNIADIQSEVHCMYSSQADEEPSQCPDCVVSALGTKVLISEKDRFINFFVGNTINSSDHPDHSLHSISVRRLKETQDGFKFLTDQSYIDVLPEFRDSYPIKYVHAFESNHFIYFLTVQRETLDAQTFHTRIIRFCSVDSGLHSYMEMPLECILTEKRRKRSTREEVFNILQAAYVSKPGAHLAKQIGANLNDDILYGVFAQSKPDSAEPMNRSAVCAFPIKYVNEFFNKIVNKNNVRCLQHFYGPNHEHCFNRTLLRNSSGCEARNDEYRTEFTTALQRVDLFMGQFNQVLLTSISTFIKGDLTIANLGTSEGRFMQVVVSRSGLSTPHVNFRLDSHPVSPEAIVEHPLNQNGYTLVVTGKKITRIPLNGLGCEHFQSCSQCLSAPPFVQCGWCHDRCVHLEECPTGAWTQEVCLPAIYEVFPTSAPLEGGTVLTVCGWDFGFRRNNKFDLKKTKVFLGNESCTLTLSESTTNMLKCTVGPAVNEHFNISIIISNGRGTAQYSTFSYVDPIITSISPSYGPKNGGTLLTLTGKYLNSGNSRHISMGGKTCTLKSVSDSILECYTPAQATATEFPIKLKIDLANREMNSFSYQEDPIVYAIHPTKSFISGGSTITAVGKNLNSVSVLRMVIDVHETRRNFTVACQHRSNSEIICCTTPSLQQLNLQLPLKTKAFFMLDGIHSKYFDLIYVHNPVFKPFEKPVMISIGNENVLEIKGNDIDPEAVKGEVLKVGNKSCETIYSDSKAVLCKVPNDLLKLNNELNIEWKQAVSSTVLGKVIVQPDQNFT
Text: as §1

HCC827 cells = assay: Internalization of antibodies targeting EGFR and/or MET in HCC827 cells; type: cell-based, human; conditions: HCC827, 1 hour
Protocol: (§2) Anti-EGFR antibodies, anti-MET antibodies, or anti-EGFR/MET bispecific antibodies, together with the pHAb-Goat anti-human IgG secondary antibody were added to NCI-H1975 cells (ATCC, Reference No.: CRL-5908), HCC827 cells (ATCC, Reference No.: CRL-2868) and NCI-H292 (ATCC, Reference No.: CRL-1848) cells, respectively, and incubated for 1 hour. The cells were centrifuged and washed with FACS buffer. MFI was measured using a flow cytometer. Endocytosis rates of antibodies were calculated. For isotype control (ISO), an antibody targeting an irrelevant target protein was used.

NCI-H292 cells = assay: Internalization of antibodies targeting EGFR and/or MET in NCI-H292 cells; type: cell-based, human; conditions: NCI-H292, 1 hour
Protocol: as §2

[3] = biological target: monkey EGFR (fasEGFR-His); assay: SPR binding activity of anti-EGFR/MET bispecific antibodies to fasEGFR-His; conditions: Table 15
Text: (§3) Dissociation was monitored for 400 seconds.

human MET (hMET-His) [4] = biological target: T1, human MET (hMET-His); assay: SPR binding activity of anti-EGFR/MET bispecific antibodies to hMET-His; conditions: Table 15
Text: as §3

monkey MET (fasMET-His) [5] = assay: SPR binding activity of anti-EGFR/MET bispecific antibodies to fasMET-His; conditions: Table 15
Text: as §3

human EGFR (hEGFR-His) = human EGFR (hEGFR-His) (Homo sapiens, UniProt P00533); assay: SPR binding activity of anti-EGFR/MET bispecific antibodies to hEGFR-His; conditions: Table 15

Q: “Telisotuzumab analog: analog of Telisotuzumab, humanized IgG1 monoclonal antibody targeting MET; SEQ ID NO: 75 and 76 [reference compound]” was tested. Which MFI (SNU-5 cells) did it give?
A: 21700

Q: What about the “Percentage of Positive (endocytosis)” value (SNU-5 cells) of the same substance?
A: 36.9%

Q: What about the “binding to human MET” value (human MET (hMET-His) [1]) of the same substance?
A: showed binding affinity

Q: And the “binding to monkey MET” value (monkey MET (fasMET-His) [2])?
A: showed binding affinity

Q: What about the “binding to dog MET” value (dog MET (dMET-His)) of the same substance?
A: no binding affinity

Q: What about the MFI (HCC827 cells) of the same substance?
A: 10344

Q: What about the “Positive Population” value (HCC827 cells) of the same substance?
A: 0.63%

Q: And the MFI (NCI-H292 cells)?
A: 6969

Q: And the “Positive Population” value (NCI-H292 cells)?
A: 2.32%

Q: And the KD [3]?
A: No binding

Q: And the koff (human MET (hMET-His) [4])?
A: 0.0001 s⁻¹

Q: What about the kon (human MET (hMET-His) [4]) of the same substance?
A: 103000 M⁻¹ s⁻¹

Q: What about the koff (monkey MET (fasMET-His) [5]) of the same substance?
A: 9.41e-05 s⁻¹

Q: What about the kon (monkey MET (fasMET-His) [5]) of the same substance?
A: 62600 M⁻¹ s⁻¹

Q: And the KD (human EGFR (hEGFR-His))?
A: No binding
